Measured values taken from patent US12473304B2, “Heterocyclic PAD4 inhibitors” (BRISTOL-MYERS SQUIBB COMPANY, priority 2020, dated 2025).

target: human PAD4 (hPAD4) (Homo sapiens (Human), UniProt Q9UM07); assay: RFMS Human PAD4 Functional Assay 1; format: biochemical; conditions: RFMS assay 1; 5 nM hPAD4, 250 μM BAEE substrate, 50 μM calcium, 37° C.
How it was run: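 Recombinant hPAD4 (5 nM) was preincubated with compound (top 50 μM, 0.5% DMSO) for 30 min at 37 °C, then reacted with 250 μM BAEE for 90 min at 37 °C in pH 7.5 HEPES buffer with 50 μM calcium and 5 μM TPEN. Product was derivatized with phenyl glyoxal and quantified by RapidFire MS.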

Chain of human PAD4 (hPAD4) (Q9UM07 whole entry): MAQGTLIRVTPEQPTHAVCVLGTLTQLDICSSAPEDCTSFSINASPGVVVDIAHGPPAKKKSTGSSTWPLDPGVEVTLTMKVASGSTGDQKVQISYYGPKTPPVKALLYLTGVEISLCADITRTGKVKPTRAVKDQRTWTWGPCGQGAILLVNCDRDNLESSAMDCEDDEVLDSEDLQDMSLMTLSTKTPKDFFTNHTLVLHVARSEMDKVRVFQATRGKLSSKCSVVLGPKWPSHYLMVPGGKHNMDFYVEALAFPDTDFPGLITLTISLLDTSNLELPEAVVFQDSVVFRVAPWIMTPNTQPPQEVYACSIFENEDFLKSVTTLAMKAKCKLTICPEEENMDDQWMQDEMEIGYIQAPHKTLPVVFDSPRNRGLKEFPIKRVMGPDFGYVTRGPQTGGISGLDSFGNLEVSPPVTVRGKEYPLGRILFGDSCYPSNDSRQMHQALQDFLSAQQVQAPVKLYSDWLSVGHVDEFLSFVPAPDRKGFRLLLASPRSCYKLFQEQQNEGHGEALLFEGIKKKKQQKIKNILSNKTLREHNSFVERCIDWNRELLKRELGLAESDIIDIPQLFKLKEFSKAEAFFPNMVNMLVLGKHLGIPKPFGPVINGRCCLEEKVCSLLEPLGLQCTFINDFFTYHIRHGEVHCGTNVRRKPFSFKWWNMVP

| SMILES | IC50 [nM] |
| --- | --- |
| Cc1c(-c2ccc3cc(-c4nn5cc(C(=O)N6CCC[C@@H](N)C6)ccc5c4C)n(CC4CC4)c3c2)cc(F)c2[nH]c(=O)ccc12 [Example 346, 6-(2-{6-[(3R)-3-Aminopiperidine-1-carbonyl]-3-methylpyrazolo[1,5-a]pyridin-2-yl}-1-(cyclopropylmethyl)-1H-indol-6-yl)-8-fluoro-5-methyl-1,2-dihydroquinolin-2-one] | 60 |
| Cc1c(-c2cc3ccc(-c4ccc(NS(C)(=O)=O)cc4)cc3n2CC2CC2)nn2cc(C(=O)N3CCC[C@@H](N)C3)ccc12 [Example 347, N-[4-(2-{6-[(3R)-3-Aminopiperidine-1-carbonyl]-3-methylpyrazolo[1,5-a]pyridin-2-yl}-1-(cyclopropylmethyl)-1H-indol-6-yl)phenyl]methanesulfonamide] | 290 |
| CC(=O)Nc1ccc(-c2ccc3cc(-c4nn5cc(C(=O)N6CCC[C@@H](N)C6)ccc5c4C)n(CC4CC4)c3c2)cn1 [Example 348, N-[5-(2-{6-[(3R)-3-Aminopiperidine-1-carbonyl]-3-methylpyrazolo[1,5-a]pyridin-2-yl}-1-(cyclopropylmethyl)-1H-indol-6-yl)pyridin-2-yl]acetamide] | 140 |
| Cc1c(-c2cc3ccc(-c4ccn5c(C)nnc5c4)cc3n2CC2CC2)nn2cc(C(=O)N3CCC[C@@H](N)C3)ccc12 [Example 349, (R)-(3-Aminopiperidin-1-yl)(2-(1-(cyclopropylmethyl)-6-(3-methyl-[1,2,4]triazolo[4,3-a]pyridin-7-yl)-1H-indol-2-yl)-3-methylpyrazolo[1,5-a]pyridin-6-yl)methanone] | 100 |
| Cc1c(-c2cc3ccc(N4CCOCC4)cc3n2CC2CC2)nn2cc(C(=O)N3CC4CCC3[C@@H]4N)ccc12 (stereo partly drawn) [Example 350, (7R)-2-{2-[1-(Cyclopropylmethyl)-6-(morpholin-4-yl)-1H-indol-2-yl]-3-methylpyrazolo[1,5-a]pyridine-6-carbonyl}-2-azabicyclo[2.2.1]heptan-7-amine] | 30 |
| Cc1c(-c2cc3ccc(N4CCC(S(C)(=O)=O)CC4)cc3n2CC2CC2)nn2cc(C(=O)N3CC4CCC3[C@@H]4N)ccc12 (stereo partly drawn) [Example 351, (7R)-2-{2-[1-(Cyclopropylmethyl)-6-(4-methanesulfonylpiperidin-1-yl)-1H-indol-2-yl]-3-methylpyrazolo[1,5-a]pyridine-6-carbonyl}-2-azabicyclo[2.2.1]heptan-7-amine] | 100 |
| COC(=O)N(C)C1CCN(c2ccc3cc(-c4nn5cc(C(=O)N6C[C@H](N)C[C@@H](F)C6)ccc5c4C)n(CC4CC4)c3c2)CC1 [Example 352, Methyl N-[1-(2-{6-[(3R,5R)-3-amino-5-fluoropiperidine-1-carbonyl]-3-methylpyrazolo[1,5-a]pyridin-2-yl}-1-(cyclopropylmethyl)-1H-indol-6-yl)piperidin-4-yl]-N-methylcarbamate] | 810 |
| CC(=O)N(C)C1CCN(c2ccc3cc(-c4nn5cc(C(=O)N6C[C@H](N)C[C@@H](F)C6)ccc5c4C)n(CC4CC4)c3c2)CC1 [Example 353, N-[1-(2-{6-[(3R,5R)-3-Amino-5-fluoropiperidine-1-carbonyl]-3-methylpyrazolo[1,5-a]pyridin-2-yl}-1-(cyclopropylmethyl)-1H-indol-6-yl)piperidin-4-yl]-N-methylacetamide] | 610 |
| Cc1c(-c2cc3ccc(N4CCC(N(C)S(C)(=O)=O)CC4)cc3n2CC2CC2)nn2cc(C(=O)N3C[C@H](N)C[C@@H](F)C3)ccc12 [Example 354, N-[1-(2-{6-[(3R,5R)-3-Amino-5-fluoropiperidine-1-carbonyl]-3-methylpyrazolo[1,5-a]pyridin-2-yl}-1-(cyclopropylmethyl)-1H-indol-6-yl)piperidin-4-yl]-N-methylmethanesulfonamide] | 150 |
| Cc1c(-c2cc3ccc(N4CCC(C(=O)N5CCCC5)CC4)cc3n2CC2CC2)nn2cc(C(=O)N3C[C@H](N)C[C@@H](F)C3)ccc12 [Example 355, (3R,5R)-1-{2-[1-(Cyclopropylmethyl)-6-[4-(pyrrolidine-1-carbonyl)piperidin-1-yl]-1H-indol-2-yl]-3-methylpyrazolo[1,5-a]pyridine-6-carbonyl}-5-fluoropiperidin-3-amine] | 20 |
| Cc1c(-c2cc3ccc(N4CCC(N5CCCC5=O)CC4)cc3n2CC2CC2)nn2cc(C(=O)N3C[C@H](N)C[C@@H](F)C3)ccc12 [Example 356, 1-[1-(2-{6-[(3R,5R)-3-Amino-5-fluoropiperidine-1-carbonyl]-3-methylpyrazolo[1,5-a]pyridin-2-yl}-1-(cyclopropylmethyl)-1H-indol-6-yl)piperidin-4-yl]pyrrolidin-2-one] | 2780 |
| Cc1c(-c2cc3ccc(N4CCC(N5CCOC5=O)CC4)cc3n2CC2CC2)nn2cc(C(=O)N3C[C@H](N)C[C@@H](F)C3)ccc12 [Example 357, 3-[1-(2-{6-[(3R,5R)-3-Amino-5-fluoropiperidine-1-carbonyl]-3-methylpyrazolo[1,5-a]pyridin-2-yl}-1-(cyclopropylmethyl)-1H-indol-6-yl)piperidin-4-yl]-l,3-oxazolidin-2-one] | 50 |
| COC(=O)N(C)C1CCN(c2ccc3cc(-c4nn5cc(C(=O)N6CCC[C@@H](N)C6)ccc5c4C)n(CC4CC4)c3c2)CC1 [Example 358, Methyl N-[1-(2-{6-[(3R)-3-aminopiperidine-1-carbonyl]-3-methylpyrazolo[1,5-a]pyridin-2-yl}-1-(cyclopropylmethyl)-1H-indol-6-yl)piperidin-4-yl]-N-methylcarbamate] | 420 |
| CC(=O)N(C)C1CCN(c2ccc3cc(-c4nn5cc(C(=O)N6CCC[C@@H](N)C6)ccc5c4C)n(CC4CC4)c3c2)CC1 [Example 359, N-[1-(2-{6-[(3R)-3-Aminopiperidine-1-carbonyl]-3-methylpyrazolo[1,5-a]pyridin-2-yl}-1-(cyclopropylmethyl)-1H-indol-6-yl)piperidin-4-yl]-N-methyl acetamide] | 240 |
| Cc1c(-c2cc3ccc(N4CCC(N(C)S(C)(=O)=O)CC4)cc3n2CC2CC2)nn2cc(C(=O)N3CCC[C@@H](N)C3)ccc12 [Example 360, N-[1-(2-{6-[(3R)-3-Aminopiperidine-1-carbonyl]-3-methylpyrazolo[1,5-a]pyridin-2-yl}-1-(cyclopropylmethyl)-1H-indol-6-yl)piperidin-4-yl]-N-methylmethanesulfonamide] | 450 |
| Cc1c(-c2cc3ccc(N4CCC(C(=O)N5CCCC5)CC4)cc3n2CC2CC2)nn2cc(C(=O)N3CCC[C@@H](N)C3)ccc12 [Example 361, (3R)-1-{2-[1-(Cyclopropylmethyl)-6-[4-(pyrrolidine-1-carbonyl)piperidin-1-yl]-1H-indol-2-yl]-3-methylpyrazolo[1,5-a]pyridine-6-carbonyl}piperidin-3-amine] | 300 |
| Cc1c(-c2cc3ccc(N4CCC(N(C)S(C)(=O)=O)CC4)cc3n2CC2CC2)nn2cc(C(=O)N3CCC[C@@H](N)C3)ccc12 [Example 362, N-[1-(2-{6-[(3R)-3-Aminopiperidine-1-carbonyl]-3-methylpyrazolo[1,5-a]pyridin-2-yl}-1-(cyclopropylmethyl)-1H-indol-6-yl)piperidin-4-yl]-N-methylmethanesulfonamide] | 430 |
| Cc1c(-c2cc3ccc(N4CCC(N5CCCC5=O)CC4)cc3n2CC2CC2)nn2cc(C(=O)N3CCC[C@@H](N)C3)ccc12 [Example 363, 1-[1-(2-{6-[(3R)-3-Aminopiperidine-1-carbonyl]-3-methylpyrazolo[1,5-a]pyridin-2-yl}-1-(cyclopropylmethyl)-1H-indol-6-yl)piperidin-4-yl]pyrrolidin-2-one] | 2280 |
| Cc1c(-c2cc3ccc(N4CCC(N5CCOC5=O)CC4)cc3n2CC2CC2)nn2cc(C(=O)N3CCC[C@@H](N)C3)ccc12 [Example 364, 3-[1-(2-{6-[(3R)-3-Aminopiperidine-1-carbonyl]-3-methylpyrazolo[1,5-a]pyridin-2-yl}-1-(cyclopropylmethyl)-1H-indol-6-yl)piperidin-4-yl]-1,3-oxazolidin-2-one] | 1090 |
| Cc1c(-c2cc3ccc(N4CCC(n5cccn5)CC4)cc3n2CC2CC2)nn2cc(C(=O)N3CCC[C@@H](N)C3)ccc12 [Example 365, (3R)-1-{2-[1-(Cyclopropylmethyl)-6-[4-(1H-pyrazol-1-yl)piperidin-1-yl]-1H-indol-2-yl]-3-methylpyrazolo[1,5-a]pyridine-6-carbonyl}piperidin-3-amine] | 720 |
| Cc1c(-c2cc3ccc(N4CC(N(C)S(C)(=O)=O)C4)cc3n2CC2CC2)nn2cc(C(=O)N3CCC[C@@H](N)C3)ccc12 [Example 366, N-[1-(2-{6-[(3R)-3-Aminopiperidine-1-carbonyl]-3-methylpyrazolo[1,5-a]pyridin-2-yl}-1-(cyclopropylmethyl)-1H-indol-6-yl)azetidin-3-yl]-N-methylmethanesulfonamide] | 870 |
| Cc1c(-c2cc3ccc(-c4cccc(CNS(C)(=O)=O)c4)cc3n2CC2CC2)nn2cc(C(=O)N3C[C@H](N)C[C@@H](F)C3)ccc12 [Example 367, N-{[3-(2-{6-[(3R,5R)-3-Amino-5-fluoropiperidine-1-carbonyl]-3-methylpyrazolo[1,5-a]pyridin-2-yl}-1-(cyclopropylmethyl)-1H-indol-6-yl)phenyl]methyl}methanesulfonamide] | 1000 |
| Cc1c(-c2cc3ccc(-c4cccc(-c5nn[nH]n5)c4)cc3n2CC2CC2)nn2cc(C(=O)N3C[C@H](N)C[C@@H](F)C3)ccc12 [Example 368, (3R,5R)-1-{2-[1-(Cyclopropylmethyl)-6-[3-(2H-1,2,3,4-tetrazol-5-yl)phenyl]-1H-indol-2-yl]-3-methylpyrazolo[1,5-a]pyridine-6-carbonyl}-5-fluoropiperidin-3-amine] | 2800 |
| Cc1c(-c2cc3ccc(-c4ccc(NS(C)(=O)=O)cc4)cc3n2CC2CC2)nn2cc(C(=O)N3C[C@H](N)C[C@@H](F)C3)ccc12 [Example 369, N-[4-(2-{6-[(3R,5R)-3-Amino-5-fluoropiperidine-1-carbonyl]-3-methylpyrazolo[1,5-a]pyridin-2-yl}-1-(cyclopropylmethyl)-1H-indol-6-yl)phenyl]methanesulfonamide] | 20 |
